Measurements as given in US11285192B2, “Formulation including a combination of beta-endorphin and adrenocorticotropic hormone” (Adamis Pharmaceuticals Corporation, priority 2019, dated 2022).
Counter-ions that a name gives are not always drawn.

What was measured:
[1] = tested on: EAE induced by PLP139-151/CFA Emulsion PTX; details: past experience with this model; cited from earlier work
[2] = tested on: EAE induced in SJL mice by PLP139-151/CFA immunization; test: EAE therapeutic model repeated with greater doses, FTY720 reference (Example 4); assay type: in vivo, mouse
Description: To further explore the effect of dosage, the model was repeated, essentially as described in Example 3, using greater doses, specifically 53 μg of ACTH+27 μg of β-endorphin (low dose), and 128 […] of ACTH+64 μg of β-endorphin (high dose). Additionally FTY720 (fingolimod, an FDA-approved drug for the treatment of multiple sclerosis) was used as a reference (positive control) treatment instead of prednisolone, which had not shown strong efficacy in Example 3. FTY720 is one of the most efficacious drugs in both EAE and MS. Immunization was on Day 0, treatment started on Day 20, and the mice were observed through Day 42.
Histological analysis confirmed the clinical findings (Table 9). Histologic readouts were inflammatory foci per section, demyelination (based on anti-myelin basic protein (MBP) staining), and apoptotic cells per section. […] A low number of inflammatory infiltrates confirms absence of both clinical and subclinical inflammation in the CNS. Histological findings in the high dose test group were generally similar to the FTY720 reference group.

[3] = tested on: EAE induced by PLP139-151/CFA Emulsion PTX; test: EAE prophylactic model, treatment from immunization, with pertussis toxin (Example 5); assay type: in vivo, mouse; details: 3 mg/kg p.o. daily
Description: The efficacy of the combination of ACTH and β-endorphin was also tested in a prophylactic model of EAE. In contrast with the therapeutic model used above, in which treatment is initiated only after EAE onset and recovery from the first wave of the disease, in the prophylactic model, treatment is initiated at the time of immunization and the mice are followed for only 3 weeks. Additionally, pertussis toxin (PTX) is used as an additional adjuvant in the immunization, producing a more sever first wave of disease with slower recovery.
Mice were injected subcutaneously at four sites in the back with 0.05 mL of the emulsion component of HOOKE KIT™ PLP139-151/CFA Emulsion PTX (catalog number EK-2120; Hooke Laboratories, Lawrence Mass.). Two sites of injection were in the upper back approximately 1 cm caudal of the neck line. The other two sites were in the lower back approximately 2 cm cranial of the base of the tail. Two hours later the pertussis toxin component of the kit was administered intraperitoneally. A 30 ng dose of PTX was used to attain optimal disease severity. Mice were administered vehicle or 128 μg ACTH+64 μg β-endorphin by subcutaneous injection every 2nd day, as a negative control and test treatment, respectively. As reference treatment (positive control) mice received 3 mg/kg FTY720 daily by oral administration. There were 12 mice in each of these three groups. The vehicle and test treatment groups were dosed from Day 0 through Day 18 (the last dose in the test treatment group was 88 μg ACTH+44 μg β-endorphin due to lab mishap). The reference treatment group was dosed from Day 0 through Day 19. Clinical scoring was as presented in Table 4 (above) beginning on Day 7 and continuing through Day 20.

[4] = per one mg of ACTH, based on rat potency testing; cited from earlier work
[5] = tested on: EAE induced in SJL mice by PLP139-151/CFA immunization; test: EAE late therapeutic model of relapsing-remitting multiple sclerosis, treatment from Day 20 (Example 3); assay type: in vivo, mouse
Description: The effect of administration of two dosages of ACTH and β-endorphin on severity and relapse in EAE was evaluated. EAE was induced in SJL mice by PLP139-151/CFA immunization on Day 0. Treatment was late therapeutic, starting on Day 20 after immunization for each mouse. Mice were observed through the end of the study, Day 42 after immunization. Four groups of 20 mice each received one of the following treatments: vehicle (a negative control); 10 mg/kg oral prednisolone daily (reference treatment); 32 μg ACTH+16 μg endorphin by subcutaneous injection, every 2nd day (low dose); or 64 μg ACTH+32 μg β-endorphin by subcutaneous injection, every 2nd day (high dose).
Mice were injected subcutaneously at four sites in the back with emulsion containing PLP139-151 (native sequence) from HOOKE KIT™ PLP139-151/CFA Emulsion, catalog number EK-0120 (Hooke Laboratories, Lawrence Mass.). Two sites of injection were in the upper back approximately 1 cm caudal of the neck line. The other two sites were in the lower back approximately 2 cm cranial of the base of the tail. The injection volume was 0.05 mL at each site. Even without treatment, most mice recover spontaneously after the first wave of disease. In the SJL model, EAE develops 10-15 days after immunization in 90-100% of immunized mice. The first wave of EAE lasts several days and most mice fully or almost fully recover from this first wave. After a disease-free period, which can last from one day to several months, most mice relapse. During the first 5-7 weeks after immunization, 50-100% of mice will develop a relapse. Each wave of paralysis results in body weight loss at onset, most of which is regained at recovery from the wave. The greatest weight loss is during the first wave of EAE. During the chronic phase of disease, the average EAE body weight is relatively stable, with normal slow increase with age. Since individual mice experience relapses at different times, only a few mice in each group are acutely sick at any given time after the first wave of EAE. Therefore, significant differences in relative body weight between groups are often not found after the first wave of disease in this model. In the vehicle treated group, disease developed as expected for this model. Five (5) mice were euthanized on Day 30 for analysis. Relapse occurred in 7 out of the 15 remaining mice, which were followed to Day 42, with typical course and severity of disease.
100 EAE induced mice were initially considered a single group and were scored daily starting on Day 9 after immunization. […]
Treatment started on the day of group assignment (Day 20 after immunization). […] EAE score was determined daily by a person unaware of both treatment and of previous scores for each mouse. Weight was measured 3 times a week. […]

COC(=O)/C=C/C(=O)OC [TECFIDERA®, dimethyl fumarate]
Complete suppression of development of EAE [1]: neither COPAXONE® (glatiramer acetate injection) nor TECFIDERA® (dimethyl fumarate) completely suppressed development of EAE

CCCCCCCCc1ccc(CCC(N)(CO)CO)cc1 [FTY720, fingolimod]
Apoptotic cells/section ± SD ([2]; 1 mg/kg p.o. QD): 0.3 ± 0.4 cells/section | Demyelination (anti-MBP) ± SD ([2]; 1 mg/kg p.o. QD): 0.1 ± 0.2 | Incidence of relapse ([2]; 1 mg/kg p.o. QD from Day 20): 12.5% | MMS of relapse period ± SD (Days 20-42) ([2]; 1 mg/kg p.o. QD from Day 20): 1.94 ± 0.50 | End % body weight ± SD ([2]; 1 mg/kg p.o. QD from Day 20, % of starting weight): 97.65 ± 5.3% | End score ± SD ([2]; 1 mg/kg p.o. QD from Day 20, Day 42): 1.06 ± 0.62 | Inflammatory foci/section ± SD ([2]; 1 mg/kg p.o. QD, spinal cord histology): 0.5 ± 0.4 foci/section | End % body weight ± SD ([3]; Day 0-19): 98.3% ± 7.8% | MMS ± SD ([3]; Day 0-19): 0.92 ± 1.16 | End score ± SD ([3]; Day 0-19, Day 20): 0.79 ± 1.01 | Median day of onset (all mice) ([3]; Day 0-19, cannot be calculated if ≤50% of mice developed disease): >20.0^1 | EAE incidence (%) ([3]; Day 0 through Day 19, scored through Day 20): 41.7%

ACTH: 39 amino acid peptide, adrenocorticotropic hormone (SYSMEHFRWGKPVGKKRRPVKVYPNGAEDESAEAFPLEF; Corticotropin; UniProt P01189 138-176, looked up)
Potency of ACTH in units [4]: about 150 units

C[C@]12C=CC(=O)C=C1CC[C@@H]1[C@@H]2[C@@H](O)C[C@@]2(C)[C@H]1CC[C@]2(O)C(=O)CO [Prednisolone, prednisolone]
Change in body weight versus vehicle control (FIG. 2) ([5]; 10 mg/kg p.o. daily): statistically significant loss of weight versus the vehicle control | MMS of relapse period ± SD (Days 25-42) ([5]; 10 mg/kg p.o. daily from Day 20, mean maximal score): 2.07 | Iba1 ± SD (% of area) ([5]; 10 mg/kg p.o. daily, microglial activation, % of total spinal cord area): 4.0 ± 1.2 % of area | Mean clinical score over the course of the study (FIG. 1), compared to vehicle ([5]; reference treatment 10 mg/kg p.o. daily): more moderate benefit
